One data set has as its system motor coordination. Nature of the data set: Rotarod test. It counts as in vivo, mouse. As to conditions: mice, 100 mg/kg, 60 min pretreatment; 6, 18 and 24 rpm. How it is done: For in vivo tests that assessed anticonvulsant properties of the test compounds 3a–3j adult male Albino Swiss (CD-1) mice weighing between 18 and 22 g were used. The animals were housed in groups of ten mice per cage at room temperature of 22 ± 2 °C, under light/dark (12:12) cycle. The animals had free access to food and tap water before the experiments. The ambient temperature of the experimental room and humidity (50 ± 10%) were kept consistent throughout all the tests. For behavioral experiments the animals were selected randomly. Each experimental group consisted of 4–8 animals/dose. The experiments were performed between 9 AM and 2 PM. Immediately after the in vivo assay the animals were euthanized by cervical dislocation. All procedures were approved by the Local Ethics Committee of the Jagiellonian University in Krakow (34/2018, 1.02.2018)) and the treatment of animals was in full accordance with ethical standards laid down in respective Polish and EU regulations (Directive No. 86/609/EEC). For in vivo tests the compounds 3a–3j were prepared in 1% Tween 80 solution (POCH, Poland) and they were administered by the intraperitoneal route. Control mice received 1% Tween 80. Pentylenetetrazole (PTZ), pilocarpine hydrochloride and scopolamine butylbromide were provided by Sigma Aldrich (Poland). For the tests they were prepared in 0.9% saline (Polfa Kutno, Poland). PTZ and pilocarpine were administered 60 min after the test compound or vehicle. To assess anticonvulsant properties of the test compounds anticonvulsant screening was conducted. Four assays were used: PTZ, maximal electroshock seizure (MES), 6-Hz and pilocarpine tests. In these assays the dose of 100 mg/kg was chosen as a starting dose. If it turned out to be effective, a lower dose (30 mg/kg) was also tested. The test was performed according to the method recently described (Sałat et al. [2005]). The mice were trained daily for 3 consecutive days on the rotarod apparatus (Rotarod apparatus, May Commat RR0711, Turkey; rod diameter: 2 cm) rotating at a constant speed of 18 rotations per minute (rpm). During each training session, the animals were placed on a rotating rod for 3 min with an unlimited number of trials. The proper experimentation was conducted 24 h after the final training trial. […] Motor impairments, defined as the inability to remain on the rotating rod for 1 min were measured and mean time spent on the rod was counted in each experimental group.
A general note: The rotarod test checks motor coordination on a turning rod.

Data set [1] deals with Toxoplasma gondii RH strain. Nature of the data set: [3H]-uracil incorporation assay in VERO host cells. To be noted: Toxoplasma gondii, Vero, read-out: Proliferation of Toxoplasma gondii RH strain ± SD.
The next data set relates to C. dubliniensis. Nature of the data set: Broth microdilution MIC/MFC, clinical isolate. The data set is classed as cell-based. To be noted: Candida dubliniensis, C. dubliniensis clinical strain; for MFC: read-out: MFC; for MIC: read-out: MIC. In outline:
(§1)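 Two-fold compound dilutions in RPMI 1640/MOPS (final 1000–0.0038 µg/ml, DMSO stocks) received clinical yeast at 0.5 McFarland. MIC was read spectrophotometrically as the lowest concentration with complete growth inhibition. MFC was the lowest concentration with no visible growth after well contents were spotted onto agar.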
Background: In broth dilution the organism is exposed to a series of concentrations in liquid medium.

For the next data set, the system named is C. famata. Nature of the data set: Broth microdilution MIC/MFC, clinical isolate. As to conditions: Debaryomyces hansenii, C. famata clinical strain; for MFC: read-out: MFC; for MIC: read-out: MIC. It counts as cell-based. In outline: as §1
For another data set, the system named is C. pulcherrima. Nature of the data set: Broth microdilution MIC/MFC, clinical isolate. To be noted: C. pulcherrima clinical strain; for MFC: read-out: MFC; for MIC: read-out: MIC. It counts as cell-based. In outline: as §1
The subject of the next data set is C. sake. Nature of the data set: Broth microdilution MIC/MFC, clinical isolate. It counts as cell-based. As to conditions: Fermentozyma sake, C. sake clinical strain; for MFC: read-out: MFC; for MIC: read-out: MIC. The procedure, abridged:
as §1

A further data set has as its system C. glabrata. Nature of the data set: Broth microdilution MIC/MFC, clinical isolate. The data set is classed as cell-based. As to conditions: Nakaseomyces glabratus, C. glabrata clinical strain; for MFC: read-out: MFC; for MIC: read-out: MIC. In outline:
as §1

The next data set relates to C. kefyr. Nature of the data set: Broth microdilution MIC/MFC, clinical isolate. The data set is classed as cell-based. To be noted: C. kefyr clinical strain; for MFC / MIC: Kluyveromyces marxianus; for MFC: read-out: MFC; for MIC: read-out: MIC. In outline:
as §1

For another data set, the system named is C. lambica. Nature of the data set: Broth microdilution MIC/MFC, clinical isolate. It counts as cell-based. To be noted: Pichia fermentans, C. lambica clinical strain; for MFC: read-out: MFC; for MIC: read-out: MIC. In outline:
as §1

Converted amounts (≈) assume the structure as drawn.

`FC(F)(F)c1ccc(-c2csc(N/N=C/C3CC3)n2)cc1` [Compound 3e, (E)-2-(2-(Cyclopropylmethylene)hydrazinyl)-4-(4-(trifluoromethyl)phenyl)thiazole] registered a melting point of 132 to 134 °C. Besides, the “motor coordination (time spent on rotarod)” value (shortened to “motor coordination”) in the data set with motor coordination is listed as “None of these compounds impaired motor skills”. In data set [1], the activity at 0.98 µg/mL came to 94.4 ± 6.92%, the activity at 1.95 µg/mL came out at 100 ± 2.25% and the activity at 3.91 µg/mL amounted to 110 ± 4.37%.

In turn, `[N-]=[N+]=Nc1ccc(-c2csc(N/N=C/C3CC3)n2)cc1` [Compound 3i, (E)-4-(4-Azidophenyl)-2-(2-(cyclopropylmethylene)hydrazinyl)thiazole] had a melting point of 124 to 126 °C. Moreover, the “motor coordination” value with motor coordination is recorded as “None of these compounds impaired motor skills”. Moreover, in data set [1], the activity at 0.98 µg/mL was 95.3 ± 10.6%, the activity at 1.95 µg/mL stood at 93.3 ± 4.67%, the activity at 3.91 µg/mL was found to be 105 ± 2.24% and the activity at 7.81 µg/mL came to 92.2 ± 3.71%. Moreover, the activity at 15.63 µg/mL in [1] was 98.8 ± 4.29%. Moreover, in the data set on C. dubliniensis, the MFC came to 0.12 µg/mL (≈ 0.422 µM) and the MIC was determined as 0.015 µg/mL (≈ 0.0528 µM). For the same molecule, in the data set with C. famata, the MFC was determined as 7.81 µg/mL (≈ 27.5 µM) and the minimal inhibitory concentration (MIC) turned out to be 1.95 µg/mL (≈ 6.86 µM). Besides, in the data set with C. pulcherrima, the MFC was over 1000 µg/mL and the MIC turned out to be 62.5 µg/mL (≈ 220 µM). In addition, in the data set with C. sake, the MFC came to 7.81 µg/mL (≈ 27.5 µM) and the MIC was 0.48 µg/mL (≈ 1.69 µM). Also, in the data set with C. glabrata, the MFC is over 1000 µg/mL and the minimum inhibitory concentration (MIC) stood at 31.2 µg/mL (≈ 110 µM). In the data set with C. kefyr, the MFC was over 1000 µg/mL and the MIC came out at 7.81 µg/mL (≈ 27.5 µM).

In turn, `COc1ccc(-c2csc(N/N=C/C3CC3)n2)cc1` [Compound 3f, (E)-2-(2-(Cyclopropylmethylene)hydrazinyl)-4-(4-methoxyphenyl)thiazole] came in with a melting point of 149 to 152 °C. Further, the “motor coordination” value in the data set with motor coordination is on record as “None of these compounds impaired motor skills”. In data set [1], the activity at 0.98 µg/mL worked out at 89.61 ± 0.77%, the activity at 1.95 µg/mL turned out to be 84.2 ± 5.47%, the activity at 3.91 µg/mL is 79.2 ± 6.07% and the activity at 7.81 µg/mL came out at 86.2 ± 6.35%. In data set [1], the activity at 15.63 µg/mL turned out to be 63 ± 4.88%, the activity at 20 µg/mL amounted to 58.5 ± 3.72%, the activity at 25 µg/mL stood at 57.8 ± 6.09% and the activity at 31.25 µg/mL is 68 ± 5.37%. In addition, in the data set on C. dubliniensis, the MFC came out at 0.06 µg/mL (≈ 0.219 µM) and the MIC is 0.015 µg/mL (≈ 0.0549 µM). In the data set with C. famata, the MFC came to 7.81 µg/mL (≈ 28.6 µM) and the MIC was 0.48 µg/mL (≈ 1.76 µM). Also, in the data set on C. lambica, the MFC is over 1000 µg/mL and the MIC stood at 31.2 µg/mL (≈ 114 µM). Also, in the data set on C. pulcherrima, the MFC was over 1000 µg/mL and the MIC was determined as 31.2 µg/mL (≈ 114 µM). In the data set with C. sake, the MFC is 7.81 µg/mL (≈ 28.6 µM) and the MIC came to 0.06 µg/mL (≈ 0.219 µM). Further, in the data set on C. glabrata, the MFC is over 1000 µg/mL and the MIC stood at 31.2 µg/mL (≈ 114 µM). Moreover, in the data set with C. kefyr, the MFC/MIC worked out at 4, the MFC was 7.81 µg/mL (≈ 28.6 µM) and the MIC came to 1.95 µg/mL (≈ 7.13 µM).

`Clc1ccc(-c2csc(N/N=C/C3CC3)n2)cc1` [Compound 3c, (E)-4-(4-Chlorophenyl)-2-(2-(cyclopropylmethylene)hydrazinyl)thiazole] had a melting point of 162 to 163 °C. Further, the “motor coordination” value in the data set with motor coordination is on record as “None of these compounds impaired motor skills”. Besides, in data set [1], the activity at 0.98 µg/mL stood at 106.78 ± 0.02%, the activity at 1.95 µg/mL worked out at 108 ± 4.34% and the activity at 3.91 µg/mL amounted to 114 ± 6.65%. For the same molecule, in the data set with C. dubliniensis, the MFC is 0.06 µg/mL (≈ 0.216 µM) and the MIC turned out to be 0.03 µg/mL (≈ 0.108 µM). Moreover, in the data set with C. famata, the MFC is 0.98 µg/mL (≈ 3.53 µM) and the MIC was found to be 0.12 µg/mL (≈ 0.432 µM). Besides, in the data set on C. lambica, the MFC is over 1000 µg/mL and the MIC worked out at 125 µg/mL (≈ 450 µM). Also, in the data set on C. pulcherrima, the MFC is over 1000 µg/mL and the MIC came out at 125 µg/mL (≈ 450 µM). Moreover, in the data set with C. sake, the MFC was found to be 0.98 µg/mL (≈ 3.53 µM) and the MIC stood at 0.12 µg/mL (≈ 0.432 µM). Further, in the data set with C. glabrata, the MFC was over 1000 µg/mL and the MIC turned out to be 500 µg/mL (≈ 1800 µM). In addition, in the data set on C. kefyr, the MFC is over 1000 µg/mL and the MIC worked out at 31.2 µg/mL (≈ 112 µM).

In general, melting point refers to the temperature of the solid-liquid transition. As a reminder, the MIC is the lowest concentration found to suppress growth.

For the origin of these results see publication PMC6133161, “Thiazoles with cyclopropyl fragment as antifungal, anticonvulsant, and anti-Toxoplasma gondii agents: synthesis, toxicity evaluation, and molecular docking study” (Medicinal Chemistry Research, 2018).
